Literature values in patent US20240093147A1, “GLIA-LIKE CELLS DIFFERENATIATED FROM SOMATIC CELLS, PREPARATION METHOD THEREFOR, COCKTAIL COMPOSITION FOR PREPARING SAME, CELL THERAPEUTIC AGENT FOR PREVENTING OR TREATING NEUROLOGICAL DISORDERS, COMPRISING SAME, AND METHOD FOR PREVENTING AND TREATING NEUROLOGICAL DISORDERS BY ADMINISTERING SAME” (CELLAPEUTICS BIO, priority 2019, published 2024).

Key:
[1] = forskolin, cAMP agonist
HDAC = conditions: valproic acid, HDAC inhibitor

IC50 [1] | IC50 (HDAC) | SMILES
0.5 µM | – | C=C[C@@]1(C)CC(=O)[C@]2(O)[C@@]3(C)[C@@H](O)CCC(C)(C)[C@@H]3[C@H](O)[C@H](OC(C)=O)[C@@]2(C)O1 [Forskolin, forskolin]
– | 2000 µM | CCCC(CCC)C(=O)O [Valproic Acid, valproic acid]
